Assay results from ChEMBL document CHEMBL1137324, “Novel selective orally active CRTH2 antagonists for allergic inflammation developed from in silico derived hits” (J Med Chem, 2006).
In brackets after ≈: the same amount, converted by molar mass. Activity calls are given as the source filed them. The rule behind the calls is not given here.

Tests used:
[1] = target: Melanin-concentrating hormone receptor 1 (Homo sapiens) (UniProt Q99705); experiment: Inhibition of human MCH1 receptor at 10 uM
Mus musculus [2] = experiment: Inhibition of goblet cell hyperplasia in BALB/c mouse at 5 mg/kg, po relative to control; assay type: functional, organism-based; set-up: dose 5 mg/kg
Mus musculus [3] = experiment: Inhibition of peribronchial eosinophilia in BALB/c mouse at 100 mg/kg, po relative to control; assay type: functional
[4] = Half life in rat; assay type: ADME, organism-based; details: in vivo
[5] = target: Opioid receptors; mu/kappa/delta (Homo sapiens) (UniProt P41145+P41143+P35372); experiment: Inhibition of opiate receptor at 10 uM; assay type: protein assay
Chain of Opioid receptors; mu/kappa/delta (Homo sapiens) (P35372 whole entry, looked up): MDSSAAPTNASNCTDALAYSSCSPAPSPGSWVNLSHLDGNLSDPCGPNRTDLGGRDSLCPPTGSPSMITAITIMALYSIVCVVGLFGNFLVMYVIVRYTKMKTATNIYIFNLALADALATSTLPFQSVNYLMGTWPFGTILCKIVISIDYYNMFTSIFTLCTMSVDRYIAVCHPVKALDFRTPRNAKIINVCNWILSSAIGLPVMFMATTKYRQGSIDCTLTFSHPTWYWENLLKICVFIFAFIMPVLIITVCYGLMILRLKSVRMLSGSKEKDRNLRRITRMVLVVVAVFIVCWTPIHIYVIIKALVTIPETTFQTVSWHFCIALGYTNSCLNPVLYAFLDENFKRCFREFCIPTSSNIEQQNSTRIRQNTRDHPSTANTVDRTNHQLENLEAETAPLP
Chain of Opioid receptors; mu/kappa/delta (Homo sapiens) (P41143 whole entry, looked up): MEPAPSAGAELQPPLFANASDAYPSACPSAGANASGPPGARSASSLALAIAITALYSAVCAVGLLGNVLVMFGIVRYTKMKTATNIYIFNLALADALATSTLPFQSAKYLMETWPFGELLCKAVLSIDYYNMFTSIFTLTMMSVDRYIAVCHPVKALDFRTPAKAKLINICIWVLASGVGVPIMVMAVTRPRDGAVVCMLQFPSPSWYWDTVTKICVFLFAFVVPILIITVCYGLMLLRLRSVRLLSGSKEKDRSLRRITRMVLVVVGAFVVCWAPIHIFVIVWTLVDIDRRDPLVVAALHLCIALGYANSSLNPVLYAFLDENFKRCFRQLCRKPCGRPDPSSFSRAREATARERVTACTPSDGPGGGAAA
Chain of Opioid receptors; mu/kappa/delta (Homo sapiens) (P41145 whole entry, looked up): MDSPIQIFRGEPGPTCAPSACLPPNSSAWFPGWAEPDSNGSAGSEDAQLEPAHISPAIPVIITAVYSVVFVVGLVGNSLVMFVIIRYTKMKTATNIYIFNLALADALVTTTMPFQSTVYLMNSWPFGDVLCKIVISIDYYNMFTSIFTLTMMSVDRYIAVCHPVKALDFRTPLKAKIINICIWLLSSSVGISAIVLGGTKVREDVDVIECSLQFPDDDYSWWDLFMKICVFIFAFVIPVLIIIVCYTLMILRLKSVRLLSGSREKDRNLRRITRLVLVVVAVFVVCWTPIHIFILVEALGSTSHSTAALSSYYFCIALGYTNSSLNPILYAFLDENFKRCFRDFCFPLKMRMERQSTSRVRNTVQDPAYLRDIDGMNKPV

[6] = Bioavailability in rat; assay type: ADME, organism-based; details: in vivo
[7] = target: Type-2 angiotensin II receptor (Homo sapiens) (UniProt P50052); experiment: Inhibition of human AT2 receptor at 10 uM
Chain of Type-2 angiotensin II receptor (Homo sapiens) (P50052 whole entry): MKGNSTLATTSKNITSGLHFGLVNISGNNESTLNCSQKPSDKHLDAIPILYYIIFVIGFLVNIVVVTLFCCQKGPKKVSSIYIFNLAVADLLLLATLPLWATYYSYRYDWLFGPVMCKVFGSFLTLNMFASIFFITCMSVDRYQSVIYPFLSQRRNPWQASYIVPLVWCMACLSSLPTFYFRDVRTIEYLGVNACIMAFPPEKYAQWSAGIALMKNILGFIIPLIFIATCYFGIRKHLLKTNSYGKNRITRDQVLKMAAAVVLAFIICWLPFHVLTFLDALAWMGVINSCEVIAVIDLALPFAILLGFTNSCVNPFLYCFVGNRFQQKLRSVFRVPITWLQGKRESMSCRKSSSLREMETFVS

[8] = target: Prostaglandin D2 receptor (Homo sapiens) (UniProt Q13258); experiment: Inhibition of human DP receptor at 10 uM
Chain of Prostaglandin D2 receptor (Homo sapiens) (Q13258 whole entry): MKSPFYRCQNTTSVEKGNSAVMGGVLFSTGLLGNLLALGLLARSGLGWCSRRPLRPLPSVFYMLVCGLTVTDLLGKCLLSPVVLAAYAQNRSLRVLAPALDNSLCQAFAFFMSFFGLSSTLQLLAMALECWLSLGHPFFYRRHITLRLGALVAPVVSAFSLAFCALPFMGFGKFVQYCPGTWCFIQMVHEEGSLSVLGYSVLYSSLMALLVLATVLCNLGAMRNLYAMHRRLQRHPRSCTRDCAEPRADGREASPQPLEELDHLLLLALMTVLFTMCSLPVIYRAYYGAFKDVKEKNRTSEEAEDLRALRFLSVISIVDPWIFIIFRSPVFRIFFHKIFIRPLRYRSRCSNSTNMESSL

[9] = target: Serotonin (5-HT) receptor (Homo sapiens) (UniProt P30939+P41595+Q13639+P28222+P46098+P08908+P28221+P28223+P28335+P28566+P34969+P50406+P47898+A5X5Y0+O95264+Q70Z44+Q8WXA8); experiment: Inhibition of 5-HT receptor at 10 uM; assay type: protein assay
[10] = target: Adrenergic receptor alpha-1 (Homo sapiens) (UniProt P35348+P25100+P35368); experiment: Inhibition of alpha1 receptor at 10 uM; assay type: protein assay
[11] = target: D(2) dopamine receptor (Homo sapiens) (UniProt P14416); experiment: Inhibition of human D2S receptor at 10 uM
Chain of D(2) dopamine receptor (Homo sapiens) (P14416 whole entry): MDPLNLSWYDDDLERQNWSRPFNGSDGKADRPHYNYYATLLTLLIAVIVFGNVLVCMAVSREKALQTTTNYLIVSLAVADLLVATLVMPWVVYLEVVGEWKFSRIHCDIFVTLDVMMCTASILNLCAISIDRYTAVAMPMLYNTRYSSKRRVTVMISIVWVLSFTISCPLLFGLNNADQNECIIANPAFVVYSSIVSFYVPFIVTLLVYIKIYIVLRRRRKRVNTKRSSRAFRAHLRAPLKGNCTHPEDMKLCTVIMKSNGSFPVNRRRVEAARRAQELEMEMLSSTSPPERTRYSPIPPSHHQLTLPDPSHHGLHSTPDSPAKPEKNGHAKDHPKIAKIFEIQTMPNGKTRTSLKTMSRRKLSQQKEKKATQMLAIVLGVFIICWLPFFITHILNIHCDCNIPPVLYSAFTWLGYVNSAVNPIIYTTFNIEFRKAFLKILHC

[12] = target: Cysteinyl leukotriene receptor 1 (Homo sapiens) (UniProt Q9Y271); experiment: Inhibition of human LTD4 receptor at 10 uM
Chain of Cysteinyl leukotriene receptor 1 (Homo sapiens) (Q9Y271 whole entry): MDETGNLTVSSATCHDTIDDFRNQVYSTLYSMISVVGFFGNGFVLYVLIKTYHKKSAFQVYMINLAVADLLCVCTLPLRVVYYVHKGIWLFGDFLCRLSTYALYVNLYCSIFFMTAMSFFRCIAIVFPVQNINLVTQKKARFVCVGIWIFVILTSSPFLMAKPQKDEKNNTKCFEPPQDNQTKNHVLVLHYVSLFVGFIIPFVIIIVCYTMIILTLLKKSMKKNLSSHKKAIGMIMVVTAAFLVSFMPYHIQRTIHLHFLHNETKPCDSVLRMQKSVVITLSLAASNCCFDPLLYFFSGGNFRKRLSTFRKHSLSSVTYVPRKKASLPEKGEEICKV

[13] = Aqueous solubility in PBS at pH 7.4; assay type: physicochemical
[14] = target: Nociceptin receptor (Homo sapiens) (UniProt P41146); experiment: Inhibition of human ORL1 at 10 uM
Chain of Nociceptin receptor (Homo sapiens) (P41146 whole entry): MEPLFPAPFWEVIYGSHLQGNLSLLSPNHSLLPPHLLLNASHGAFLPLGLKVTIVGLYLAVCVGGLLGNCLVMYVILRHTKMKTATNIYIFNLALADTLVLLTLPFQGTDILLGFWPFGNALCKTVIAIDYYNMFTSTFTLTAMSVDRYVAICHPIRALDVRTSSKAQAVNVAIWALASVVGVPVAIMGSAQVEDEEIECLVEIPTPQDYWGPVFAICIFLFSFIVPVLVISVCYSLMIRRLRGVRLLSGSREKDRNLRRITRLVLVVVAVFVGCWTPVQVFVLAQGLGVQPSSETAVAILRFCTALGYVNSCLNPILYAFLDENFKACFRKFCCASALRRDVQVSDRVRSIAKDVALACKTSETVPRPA

[15] = Permeability from apical to basolateral side of Caco-2 cells; assay type: ADME, cell-based; details: human, read-out: permeability
[16] = target: Sodium-dependent serotonin transporter (Homo sapiens) (UniProt P31645); experiment: Inhibition of human 5-HT transporter at 10 uM
Chain of Sodium-dependent serotonin transporter (Homo sapiens) (P31645 whole entry, looked up): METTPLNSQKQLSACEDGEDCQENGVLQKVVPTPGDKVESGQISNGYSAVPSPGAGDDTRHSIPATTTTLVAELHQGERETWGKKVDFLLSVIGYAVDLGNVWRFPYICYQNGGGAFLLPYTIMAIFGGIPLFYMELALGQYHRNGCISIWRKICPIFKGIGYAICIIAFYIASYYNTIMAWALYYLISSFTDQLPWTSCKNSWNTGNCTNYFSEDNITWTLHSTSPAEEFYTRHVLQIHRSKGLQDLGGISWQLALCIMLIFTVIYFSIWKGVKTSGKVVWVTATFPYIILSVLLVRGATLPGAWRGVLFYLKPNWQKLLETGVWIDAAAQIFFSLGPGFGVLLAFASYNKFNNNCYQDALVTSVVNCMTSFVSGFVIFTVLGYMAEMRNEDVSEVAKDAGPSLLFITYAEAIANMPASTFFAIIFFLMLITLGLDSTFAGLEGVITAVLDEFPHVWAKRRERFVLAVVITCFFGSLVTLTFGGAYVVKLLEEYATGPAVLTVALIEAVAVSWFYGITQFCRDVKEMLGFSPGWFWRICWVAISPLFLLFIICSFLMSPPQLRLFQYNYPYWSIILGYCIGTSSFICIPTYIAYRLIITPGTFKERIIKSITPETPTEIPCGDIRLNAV

[17] = target: Adenosine receptor A2a (Homo sapiens) (UniProt P29274); experiment: Inhibition of human A2A receptor at 10 uM
[18] = target: T1, Prostaglandin D2 receptor 2 (Homo sapiens, UniProt Q9Y5Y4); experiment: Antagonist activity against CRTH2 receptor measured as inhibition of PGD2-induced beta-arrestin translocation in HEK293 cells by BRET assay; assay type: functional, cell-based
T1 sequence (Q9Y5Y4 whole entry): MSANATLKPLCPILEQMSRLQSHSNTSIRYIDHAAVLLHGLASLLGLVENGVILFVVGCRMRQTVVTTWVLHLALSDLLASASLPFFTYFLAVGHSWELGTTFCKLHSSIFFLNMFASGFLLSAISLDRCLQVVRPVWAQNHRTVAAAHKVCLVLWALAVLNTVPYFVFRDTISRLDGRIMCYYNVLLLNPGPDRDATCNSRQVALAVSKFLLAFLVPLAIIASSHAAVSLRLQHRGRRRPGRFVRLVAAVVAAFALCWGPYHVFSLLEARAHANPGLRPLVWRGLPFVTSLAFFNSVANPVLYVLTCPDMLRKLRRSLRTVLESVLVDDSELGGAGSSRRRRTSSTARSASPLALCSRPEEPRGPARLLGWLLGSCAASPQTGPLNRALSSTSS

[19] = target: Histamine H1 receptor (Homo sapiens) (UniProt P35367); experiment: Inhibition of human H1 receptor at 10 uM
Chain of Histamine H1 receptor (Homo sapiens) (P35367 whole entry): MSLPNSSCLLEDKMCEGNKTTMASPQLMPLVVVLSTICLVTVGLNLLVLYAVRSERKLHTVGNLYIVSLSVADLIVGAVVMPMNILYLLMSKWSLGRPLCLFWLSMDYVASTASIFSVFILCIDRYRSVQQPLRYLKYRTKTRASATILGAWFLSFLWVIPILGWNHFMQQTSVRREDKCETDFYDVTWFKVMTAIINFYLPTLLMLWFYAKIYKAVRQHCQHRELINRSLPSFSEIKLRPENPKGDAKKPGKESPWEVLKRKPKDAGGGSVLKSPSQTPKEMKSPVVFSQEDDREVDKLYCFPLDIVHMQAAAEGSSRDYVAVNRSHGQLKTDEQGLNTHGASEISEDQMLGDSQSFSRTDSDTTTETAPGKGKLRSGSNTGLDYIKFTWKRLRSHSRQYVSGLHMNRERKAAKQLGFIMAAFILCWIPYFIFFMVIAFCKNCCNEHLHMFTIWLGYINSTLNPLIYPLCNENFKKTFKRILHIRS

Homo sapiens = species on record: Homo sapiens; experiment: Inhibition of human Y receptor at 10 uM
[20] = target: GABA-A receptor; anion channel (Homo sapiens) (UniProt P14867+P47870+P18507+P28472+P48169+Q99928+Q9UN88+P34903+O00591+O14764+Q8N1C3+P18505+P78334+P47869+P31644+Q16445); experiment: Inhibition of human GABA receptor at 10 uM; assay type: protein-complex assay
[21] = target: Platelet-activating factor receptor (Homo sapiens) (UniProt P25105); experiment: Inhibition of human PAF receptor at 10 uM
Chain of Platelet-activating factor receptor (Homo sapiens) (P25105 whole entry): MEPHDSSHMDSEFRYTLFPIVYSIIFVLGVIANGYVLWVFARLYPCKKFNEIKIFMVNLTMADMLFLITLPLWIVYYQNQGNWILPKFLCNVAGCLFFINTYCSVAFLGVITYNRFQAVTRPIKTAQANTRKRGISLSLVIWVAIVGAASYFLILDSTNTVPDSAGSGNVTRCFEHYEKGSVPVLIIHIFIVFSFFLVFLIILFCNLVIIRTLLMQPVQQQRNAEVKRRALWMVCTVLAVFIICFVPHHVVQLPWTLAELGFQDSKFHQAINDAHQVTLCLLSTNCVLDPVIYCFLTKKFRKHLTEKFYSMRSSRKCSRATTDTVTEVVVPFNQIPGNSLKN

[22] = target: Prostaglandin D2 receptor 2 (Mus musculus, UniProt Q9Z2J6); experiment: Inhibition of mouse CRTH2 receptor
Chain of Prostaglandin D2 receptor 2 (Mus musculus, UniProt Q9Z2J6) (Q9Z2J6 whole entry): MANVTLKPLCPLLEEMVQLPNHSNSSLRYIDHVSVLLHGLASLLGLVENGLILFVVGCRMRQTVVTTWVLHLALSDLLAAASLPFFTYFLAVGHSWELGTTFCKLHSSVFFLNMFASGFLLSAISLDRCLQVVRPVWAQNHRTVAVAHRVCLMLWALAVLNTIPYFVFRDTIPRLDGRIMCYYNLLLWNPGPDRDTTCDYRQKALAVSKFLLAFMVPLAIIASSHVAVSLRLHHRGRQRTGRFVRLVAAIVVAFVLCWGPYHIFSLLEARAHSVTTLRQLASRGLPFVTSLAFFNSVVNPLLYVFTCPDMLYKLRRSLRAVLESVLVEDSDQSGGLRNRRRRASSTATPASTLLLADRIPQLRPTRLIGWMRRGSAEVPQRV

inhibition [1]: < 30%
half-life [4]: 2.7 h
inhibition [5]: < 30%
bioavailability [6]: 84%
inhibition [7]: < 30%
inhibition [8]: < 30%
inhibition [9]: < 30%
inhibition [10]: < 30%
inhibition [11]: < 30%
inhibition [12]: < 30%
solubility [13]: 200 µM (≈ 80.2 µg/mL)
inhibition [14]: < 30%
Papp A→B [15]: 8.7 ×10⁻⁶ cm/s
inhibition [16]: < 30%
inhibition [17]: < 30%
IC50 [18]: 24 nM
inhibition [19]: < 30%
inhibition (Homo sapiens): < 30%
inhibition [20]: < 30%
inhibition [21]: < 30%
IC50 [22]: 3.2 nM
SMILES: O=C(O)COc1ccc(Br)cc1C(=O)c1cnn(-c2ccccc2)c1
Activity (Mus musculus [2]): Active
inhibition in vivo at 100 mg/kg (Mus musculus [3]): 55%
